Reference: patent US20060100188A1, “Treatment methods” (priority 2004, published 2006)

How the values were obtained:
[1] = tested on: A375 human melanoma cells (high MGMT level); assay: Colony formation assay, A375 cells; type: cell-based; conditions: 4-day cycle
Procedure: (§1) As detailed below, DAOY human glioma cells (high MGMT level), A375 human melanoma cells (high MGMT level), and LOX human melanoma cells (low MGMT level) in in vitro colony formation assays were treated with different dosing schedules of TMZ. In brief, sub-confluent plates containing cells (DAOY, A375, or LOX) were trypsinized, then rinsed and suspended in appropriate culture medium before seeding in 6-well plates. Cells were incubated for 18-24 hours at 37° C. to allow cells to attach. Graded concentrations of TMZ or equivalent volumes of diluents were added in triplicate. Each pulse of TMZ lasted for 24 hours. For example, cells receiving continuous daily dosing of TMZ were treated with TMZ-containing medium every 24 hours throughout the cycle. Following the last pulse of TMZ in a cycle, TMZ-containing medium was removed and replaced with fresh medium without TMZ for the rest of the incubation period. Resulting colonies were stained with Crystal Violet solution and quantified using ImagePro plus software (Empire Imaging Systems, Inc. Asbury, N.J.).

[2] = tested on: DAOY human glioma cells (high MGMT level); assay: Colony formation assay, DAOY cells; type: cell-based; conditions: 4-day cycle
Procedure: as §1

[3] = tested on: DAOY human glioma xenograft tumors; assay: DAOY human glioma xenograft tumor model; type: in vivo, nude mice; conditions: two 15-day cycles
Procedure: (§2) In brief, female athymic nude mice or female SCID mice (4-6 week old) from Charles River Laboratories were maintained in a VAF-barrier facility. Animal procedures were performed in accordance with the rules set forth in the N.I.H. guide for the care and use of laboratory animals.
(§3) DAOY human glioma cells (5×10^6), LOX human melanoma cells (5×10^5), and A375 human melanoma cells (5×10^6) were inoculated subcutaneously in the right flank of the animal (LOX in SCID mice; DAOY and A375 in nude mice). To facilitate in vivo growth, Matrigel was mixed with DAOY and A375 cells (50%) before inoculation. When tumor volumes were approximately 100 mm^3, animals were randomized and grouped (n=10). Tumor volumes and body weight were measured twice weekly using Labcat™ computer application (Innovative Programing Associates, N.J.). Tumor volumes were calculated by the formula (W×L×H)×π×⅙.
(§4) TMZ was administered by intraperitoneal injections with 20% HPβCD (containing 1% DMSO) as vehicle. Mice bearing xenograft tumors of DAOY human glioma cells, a high MGMT level cell line, were treated with one of three different dosing schedules. In a 15-day cycle, under same total dose levels, mice received one of the following TMZ treatments: (i) day 1 through day 15; (ii) day 1 through day 5; or (iii) intermittently on day 1, 4, 7, 10, and 13. For all dosing schedules, three different dose levels (180, 270, and 405 mg/kg total) were used.
FIG. 5A illustrates the mean tumor growth curves of DAOY human glioma xenograft tumors following TMZ treatment for two consecutive 15-day cycles of continuous daily dosing (Day 1-15 (first cycle), Day 16-30 (second cycle)); where the total dose of TMZ administered was 0, 360, 540, or 810 mg per kg (mpk). FIG. 5B illustrates the mean tumor growth curves of DAOY human glioma xenograft tumors following TMZ treatment for two consecutive 15-day cycles of dosing for 5 consecutive days (Day 1-5 (first cycle); Day 16-20 (second cycle)); where the total dose of TMZ administered was 0, 360, 540, or 810 mpk. FIG. 5C illustrates mean tumor growth curves of DAOY human glioma xenograft tumors following TMZ treatment for two consecutive 15-day cycles of intermittent dosing for 5 days (Day 1, 4, 7, 10, 13 (first cycle); Day 16, 19, 22, 25, 28 (second cycle)); where the total dose of TMZ administered was 0, 360, 540, or 810 mpk.

[4] = tested on: A375 human melanoma xenograft tumors; assay: A375 human melanoma xenograft tumor model; type: in vivo, nude mice; conditions: 15-day cycle
Procedure: as §2, §3, §4
as §4, with “Mice” for “TMZ was administered by intraperitoneal injections with 20% HPβCD (containing 1% DMSO) as vehicle. Mice”, “A375” for “DAOY”, “melanoma” for “glioma”, “with” for “with one of”, “Similar to the schedules used for the DAOY model, in” for “In”

[5] = tested on: LOX human melanoma cells (low MGMT level); assay: Colony formation assay, LOX cells; type: cell-based
Procedure: as §1
In the 4-day cycle, illustrated in FIG. 3A, TMZ was administered according to one of two different dosing schedules: (i) continuous daily dosing (Day 1-4); or (ii) single pulse dosing (Day 1); where the total amount of TMZ administered was 0, 16, 31, 62, or 124 μg.
In the 8-day cycle, illustrated in FIG. 3B, TMZ was administered according to one of three different dosing schedules: (i) continuous daily dosing (Day 1-8); (ii) dosing for 2 consecutive days (Day 1-2); or (ii) intermittent dosing for 2 days (Day 1, Day 5); where the total amount of TMZ administered was 0, 31, 62, 124, or 248 μg.

[6] = tested on: LOX human melanoma xenograft tumors; assay: LOX human melanoma xenograft tumor model; type: in vivo, SCID mice; conditions: for % Inhibition compared to tumor treated with vehicle: 12-day cycle; for TGI: SCID mice, intermediate dose 72 mg/kg total
Procedure: as §2, §3, §4
Mice bearing xenograft tumors of LOX human melanoma cells, a low MGMT level cell line, were treated with TMZ using two different schedules. The same total dose was administered evenly divided over the course of either: (i) 4 or (ii) 12 days. TMZ was administered through intraperitoneal injection using cumulative total dose levels of 36, 72 or 144 mg/kg.
The efficacy of TMZ was schedule dependent, with greater efficacy seen when dosing for 4 consecutive days.

## Cn1nnc2c(C(N)=O)ncn2c1=O [TMZ, 3,4-dihydro-3-methyl-4-oxoimidazo[5,1-d]-as-tetrazine-8-carboxamide]
[1]; continuous daily dosing Day 1-4 (¼ total TMZ/day), total TMZ 62 μg
  % Inhibition compared to untreated cells: 17.4%
[1]; single pulse dosing Day 1, total TMZ 62 μg
  % Inhibition compared to untreated cells: 76%
[1]; single pulse dosing Day 1, total TMZ 124 μg
  % Inhibition compared to untreated cells: 88%
[1]; single pulse dosing Day 1, total TMZ 249 μg
  % Inhibition compared to untreated cells: 96%
[2]; continuous daily dosing Day 1-4 (¼ total TMZ/day), total TMZ 93 μg
  % Inhibition compared to untreated cells: −8%
[2]; single pulse dosing Day 1, total TMZ 93 μg
  % Inhibition compared to untreated cells: −37%
[2]; single pulse dosing Day 1, total TMZ 186 μg
  % Inhibition compared to untreated cells: 20%
[2]; single pulse dosing Day 1, total TMZ 373 μg
  % Inhibition compared to untreated cells: 75%
[3]; continuous dosing Day 1-30, 12 mpk per pulse, total 360 mpk, dose intensity 1, i.p.
  % Inhibition compared to tumor treated with vehicle: 66%
[3]; dosing for 5 consecutive days Day 1-5, Day 16-20, 54 mpk per pulse, total 540 mpk, dose intensity 1.5, i.p.
  % Inhibition compared to tumor treated with vehicle: 118%
[3]; dosing for 5 consecutive days Day 1-5, Day 16-20, 81 mpk per pulse, total 810 mpk, dose intensity 2.25, i.p.
  % Inhibition compared to tumor treated with vehicle: 124%
[3]; intermittent dosing Day 1, 4, 7, 10, 13, 16, 19, 22, 25, 28, 54 mpk per pulse, total 540 mpk, dose intensity 1.5, i.p.
  % Inhibition compared to tumor treated with vehicle: 85%
[3]; intermittent dosing Day 1, 4, 7, 10, 13, 16, 19, 22, 25, 28, 81 mpk per pulse, total 810 mpk, dose intensity 2.25, i.p.
  % Inhibition compared to tumor treated with vehicle: 117%
[4]; continuous daily dosing Day 1-15, 12 mpk per pulse, total 180 mpk, dose intensity 1, i.p.
  % Inhibition compared to tumor treated with vehicle: 34%
[4]; dosing for 5 consecutive days Day 1-5, 54 mpk per pulse, total 270 mpk, dose intensity 1.5, i.p.
  % Inhibition compared to tumor treated with vehicle: 29%
[4]; dosing for 5 consecutive days Day 1-5, 81 mpk per pulse, total 405 mpk, dose intensity 2.25, i.p.
  % Inhibition compared to tumor treated with vehicle: 68%
[4]; intermittent dosing Day 1, 4, 7, 10, 13, 54 mpk per pulse, total 270 mpk, dose intensity 1.5, i.p.
  % Inhibition compared to tumor treated with vehicle: 58%
[4]; intermittent dosing Day 1, 4, 7, 10, 13, 81 mpk per pulse, total 405 mpk, dose intensity 2.25, i.p.
  % Inhibition compared to tumor treated with vehicle: 73%
[5]; 4-day cycle, continuous daily dosing Day 1-4 (¼ total TMZ/day), total TMZ 16 μg
  % Inhibition compared to untreated cells: 7%
[5]; 4-day cycle, single pulse dosing Day 1, total TMZ 16 μg
  % Inhibition compared to untreated cells: 66%
[5]; 4-day cycle, single pulse dosing Day 1, total TMZ 31 μg
  % Inhibition compared to untreated cells: 87%
[5]; 4-day cycle, single pulse dosing Day 1, total TMZ 62 μg
  % Inhibition compared to untreated cells: 84%
[5]; 8-day cycle, continuous daily dosing Day 1-8 (⅛ total TMZ/day), total TMZ 31 μg
  % Inhibition compared to untreated cells: −5%
[5]; 8-day cycle, dosing for 2 consecutive days Day 1, Day 2 (½ total TMZ/day), total TMZ 31 μg
  % Inhibition compared to untreated cells: 45%
[5]; 8-day cycle, dosing for 2 consecutive days Day 1, Day 2 (½ total TMZ/day), total TMZ 62 μg
  % Inhibition compared to untreated cells: 92%
[5]; 8-day cycle, dosing for 2 consecutive days Day 1, Day 2 (½ total TMZ/day), total TMZ 124 μg
  % Inhibition compared to untreated cells: 98%
[5]; 8-day cycle, intermittent dosing for 2 days Day 1, Day 5 (½ total TMZ/day), total TMZ 31 μg
  % Inhibition compared to untreated cells: 78%
[5]; 8-day cycle, intermittent dosing for 2 days Day 1, Day 5 (½ total TMZ/day), total TMZ 62 μg
  % Inhibition compared to untreated cells: 98%
[5]; 8-day cycle, intermittent dosing for 2 days Day 1, Day 5 (½ total TMZ/day), total TMZ 124 μg
  % Inhibition compared to untreated cells: 99%
[6]; continuous daily dosing Day 1-12, 3 mpk per pulse, total 36 mpk, dose intensity 1, i.p.
  % Inhibition compared to tumor treated with vehicle: 37%
[6]; dosing for 4 consecutive days Day 1-4, 18 mpk per pulse, total 72 mpk, dose intensity 2, i.p.
  % Inhibition compared to tumor treated with vehicle: 88%
[6]; dosing for 4 consecutive days Day 1-4, 36 mpk per pulse, total 144 mpk, dose intensity 4, i.p.
  % Inhibition compared to tumor treated with vehicle: 94%
[6]; 4-day treatment schedule
  TGI: 88%
[6]; 12-day schedule
  TGI: 50%
